Experimental data taken from article PMC10176470, “Engaging a Non-catalytic Cysteine Residue Drives Potent and Selective Inhibition of Caspase-6” (Journal of the American Chemical Society, 2023).

How the values were obtained:
Format in all cases: cell-based
[1] = target: proteins of HEK293T cells transiently overexpressing caspase-6 (Homo sapiens, UniProt P06744); conditions: protein GPI (P06744), analysis C6
[2] = target: proteins of HEK293T cells transiently overexpressing caspase-6 (Homo sapiens, UniProt P06748); conditions: protein NPM1 (P06748)
proteins of HEK293T cells transiently overexpressing caspase-6 (Homo sapiens, UniProt P06748), sequence (P06748 whole entry): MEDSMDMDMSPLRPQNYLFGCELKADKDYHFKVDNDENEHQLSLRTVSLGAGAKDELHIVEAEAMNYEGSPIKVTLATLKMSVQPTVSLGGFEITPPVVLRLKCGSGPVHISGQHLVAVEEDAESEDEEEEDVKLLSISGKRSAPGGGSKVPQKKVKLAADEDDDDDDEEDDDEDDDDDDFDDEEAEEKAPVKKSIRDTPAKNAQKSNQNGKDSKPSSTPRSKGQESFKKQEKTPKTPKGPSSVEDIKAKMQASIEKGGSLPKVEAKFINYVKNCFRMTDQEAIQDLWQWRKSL

[3] = target: proteins of HEK293T cells transiently overexpressing caspase-6 (Homo sapiens, UniProt P07814); conditions: exp_ref Probe; protein EPRS (P07814); analysis C6
[4] = target: proteins of HEK293T cells transiently overexpressing caspase-6 (Homo sapiens, UniProt P19013); conditions: Probe; protein KRT4 P19013
[5] = target: proteins of HEK293T cells transiently overexpressing caspase-6 (Homo sapiens, UniProt P27348); conditions: exp_ref Probe; protein YWHAQ (P27348); analysis C6
proteins of HEK293T cells transiently overexpressing caspase-6 (Homo sapiens, UniProt P27348), sequence (P27348 whole entry): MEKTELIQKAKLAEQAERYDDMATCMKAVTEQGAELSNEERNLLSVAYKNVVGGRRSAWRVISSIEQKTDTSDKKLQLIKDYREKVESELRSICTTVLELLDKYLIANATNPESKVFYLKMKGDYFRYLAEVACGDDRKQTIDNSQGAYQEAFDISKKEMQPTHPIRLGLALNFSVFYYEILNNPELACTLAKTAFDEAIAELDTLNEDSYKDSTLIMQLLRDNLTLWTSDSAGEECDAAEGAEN

[6] = target: proteins of HEK293T cells transiently overexpressing caspase-6 (Homo sapiens, UniProt P30050); conditions: protein RPL12 (P30050)
[7] = target: T1, proteins of HEK293T cells transiently overexpressing caspase-6 (Homo sapiens, UniProt P30101); conditions: protein PDIA3 (P30101)
T1 sequence (P30101 25-505): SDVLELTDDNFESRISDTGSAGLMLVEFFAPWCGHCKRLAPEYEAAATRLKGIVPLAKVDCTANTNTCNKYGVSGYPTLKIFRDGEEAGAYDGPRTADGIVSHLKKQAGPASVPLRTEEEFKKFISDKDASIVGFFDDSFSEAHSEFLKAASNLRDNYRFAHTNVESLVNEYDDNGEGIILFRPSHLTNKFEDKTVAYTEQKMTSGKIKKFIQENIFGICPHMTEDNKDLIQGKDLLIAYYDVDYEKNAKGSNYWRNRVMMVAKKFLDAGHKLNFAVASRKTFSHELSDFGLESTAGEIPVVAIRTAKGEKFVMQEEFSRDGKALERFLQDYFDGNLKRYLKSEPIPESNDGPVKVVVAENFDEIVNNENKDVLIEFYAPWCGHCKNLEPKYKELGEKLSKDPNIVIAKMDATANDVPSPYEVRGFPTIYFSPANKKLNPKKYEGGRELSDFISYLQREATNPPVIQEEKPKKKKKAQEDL

[8] = target: proteins of HEK293T cells transiently overexpressing caspase-6 (Homo sapiens, UniProt P31689); conditions: exp_ref Probe; protein DNAJA1 (P31689); analysis C6
proteins of HEK293T cells transiently overexpressing caspase-6 (Homo sapiens, UniProt P31689), sequence (P31689 whole entry): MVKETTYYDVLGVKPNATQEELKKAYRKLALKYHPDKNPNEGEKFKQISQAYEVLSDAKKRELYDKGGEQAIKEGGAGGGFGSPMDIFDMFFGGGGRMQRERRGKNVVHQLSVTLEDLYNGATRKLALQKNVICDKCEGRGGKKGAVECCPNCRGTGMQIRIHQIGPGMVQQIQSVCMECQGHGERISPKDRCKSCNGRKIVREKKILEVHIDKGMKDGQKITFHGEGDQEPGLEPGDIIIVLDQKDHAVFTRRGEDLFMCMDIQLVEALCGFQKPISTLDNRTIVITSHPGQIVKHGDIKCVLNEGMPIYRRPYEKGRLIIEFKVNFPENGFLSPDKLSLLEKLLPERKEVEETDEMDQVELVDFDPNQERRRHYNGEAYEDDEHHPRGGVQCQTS

[9] = target: proteins of HEK293T cells transiently overexpressing caspase-6 (Homo sapiens, UniProt P46777); conditions: exp_ref Probe; protein RPL5 (P46777); analysis C6
[10] = target: proteins of HEK293T cells transiently overexpressing caspase-6 (Homo sapiens, UniProt P53985); conditions: exp_ref Probe; protein SLC16A1 (P53985); analysis C6
[11] = target: proteins of HEK293T cells transiently overexpressing caspase-6 (Homo sapiens, UniProt P60900); conditions: exp_ref Probe; protein PSMA6 (P60900); analysis C6
proteins of HEK293T cells transiently overexpressing caspase-6 (Homo sapiens, UniProt P60900), sequence (P60900 whole entry): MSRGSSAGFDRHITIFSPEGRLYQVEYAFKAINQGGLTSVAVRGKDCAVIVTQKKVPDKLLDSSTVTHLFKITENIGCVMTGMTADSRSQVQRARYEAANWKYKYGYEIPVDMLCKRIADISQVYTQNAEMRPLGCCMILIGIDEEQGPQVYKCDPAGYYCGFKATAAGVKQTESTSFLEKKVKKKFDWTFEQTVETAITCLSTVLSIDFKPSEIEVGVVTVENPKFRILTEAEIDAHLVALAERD

[12] = target: proteins of HEK293T cells transiently overexpressing caspase-6 (Homo sapiens, UniProt P62701); conditions: exp_ref Probe; protein RPS4X (P62701); analysis C6
[13] = target: T2, proteins of HEK293T cells transiently overexpressing caspase-6 (Homo sapiens, UniProt P78417); conditions: protein GSTO1 (P78417)
T2 sequence (P78417 1-241): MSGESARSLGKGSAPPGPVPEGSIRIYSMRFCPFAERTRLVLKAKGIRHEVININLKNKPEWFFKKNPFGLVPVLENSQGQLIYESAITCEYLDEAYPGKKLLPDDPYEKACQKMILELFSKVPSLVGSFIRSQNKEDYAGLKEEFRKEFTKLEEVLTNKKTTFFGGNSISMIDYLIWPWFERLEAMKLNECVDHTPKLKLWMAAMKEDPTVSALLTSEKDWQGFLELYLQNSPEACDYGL

[14] = target: proteins of HEK293T cells transiently overexpressing caspase-6 (Homo sapiens, UniProt Q00610); conditions: exp_ref Probe; protein CLTC (Q00610); analysis C6
proteins of HEK293T cells transiently overexpressing caspase-6 (Homo sapiens, UniProt Q00610), sequence (Q00610 whole entry): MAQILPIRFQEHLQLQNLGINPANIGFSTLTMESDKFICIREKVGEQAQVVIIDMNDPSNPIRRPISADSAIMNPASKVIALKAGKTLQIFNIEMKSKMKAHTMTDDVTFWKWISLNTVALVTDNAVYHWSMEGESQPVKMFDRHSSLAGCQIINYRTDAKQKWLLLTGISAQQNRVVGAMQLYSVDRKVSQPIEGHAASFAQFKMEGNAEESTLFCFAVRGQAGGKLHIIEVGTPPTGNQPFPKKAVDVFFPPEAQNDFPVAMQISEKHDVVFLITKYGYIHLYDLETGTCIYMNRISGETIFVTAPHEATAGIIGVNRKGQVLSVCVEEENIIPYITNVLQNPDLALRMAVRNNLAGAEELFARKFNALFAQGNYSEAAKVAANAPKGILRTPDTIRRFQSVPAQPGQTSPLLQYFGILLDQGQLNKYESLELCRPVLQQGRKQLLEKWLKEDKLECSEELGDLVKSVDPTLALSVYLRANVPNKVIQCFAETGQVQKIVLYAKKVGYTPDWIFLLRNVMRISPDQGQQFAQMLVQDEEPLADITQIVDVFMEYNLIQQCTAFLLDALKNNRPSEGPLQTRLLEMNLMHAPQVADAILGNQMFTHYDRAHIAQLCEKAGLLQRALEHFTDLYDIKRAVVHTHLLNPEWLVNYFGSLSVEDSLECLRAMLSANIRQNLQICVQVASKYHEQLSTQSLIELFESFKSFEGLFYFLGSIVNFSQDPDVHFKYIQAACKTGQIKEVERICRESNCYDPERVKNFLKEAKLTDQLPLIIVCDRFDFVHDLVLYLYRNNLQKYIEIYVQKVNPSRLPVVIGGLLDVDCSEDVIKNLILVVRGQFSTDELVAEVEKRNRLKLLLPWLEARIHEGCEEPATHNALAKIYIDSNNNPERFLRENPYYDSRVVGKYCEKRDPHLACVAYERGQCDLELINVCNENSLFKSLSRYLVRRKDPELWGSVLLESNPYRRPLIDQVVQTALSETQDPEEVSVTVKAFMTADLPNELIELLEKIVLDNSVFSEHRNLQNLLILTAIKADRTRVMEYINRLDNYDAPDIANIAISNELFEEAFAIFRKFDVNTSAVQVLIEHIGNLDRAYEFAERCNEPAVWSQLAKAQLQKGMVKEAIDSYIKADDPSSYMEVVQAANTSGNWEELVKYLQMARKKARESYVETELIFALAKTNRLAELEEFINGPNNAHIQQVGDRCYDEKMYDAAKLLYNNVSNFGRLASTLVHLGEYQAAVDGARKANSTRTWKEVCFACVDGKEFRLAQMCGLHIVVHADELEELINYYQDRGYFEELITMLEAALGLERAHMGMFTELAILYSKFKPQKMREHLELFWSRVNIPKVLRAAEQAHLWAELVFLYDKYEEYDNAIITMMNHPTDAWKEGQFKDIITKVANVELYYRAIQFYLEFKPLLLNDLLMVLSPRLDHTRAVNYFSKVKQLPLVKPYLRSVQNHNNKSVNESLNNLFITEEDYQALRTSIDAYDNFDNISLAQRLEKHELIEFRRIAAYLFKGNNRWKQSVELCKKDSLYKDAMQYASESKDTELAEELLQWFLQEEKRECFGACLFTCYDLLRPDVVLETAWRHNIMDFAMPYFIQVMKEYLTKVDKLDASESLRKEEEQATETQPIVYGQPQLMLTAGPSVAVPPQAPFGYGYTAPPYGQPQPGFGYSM

[15] = target: T3, proteins of HEK293T cells transiently overexpressing caspase-6 (Homo sapiens, UniProt Q02978); conditions: protein SLC25A11 (Q02978), analysis C6
T3 sequence (Q02978 1-314): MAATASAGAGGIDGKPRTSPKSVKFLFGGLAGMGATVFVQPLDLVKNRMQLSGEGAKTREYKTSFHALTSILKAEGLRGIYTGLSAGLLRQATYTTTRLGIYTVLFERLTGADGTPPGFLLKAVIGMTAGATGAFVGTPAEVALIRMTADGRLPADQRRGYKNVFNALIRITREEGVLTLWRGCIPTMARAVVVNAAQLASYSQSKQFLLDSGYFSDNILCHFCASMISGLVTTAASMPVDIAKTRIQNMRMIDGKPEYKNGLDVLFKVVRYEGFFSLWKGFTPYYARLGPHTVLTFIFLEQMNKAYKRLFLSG

[16] = target: proteins of HEK293T cells transiently overexpressing caspase-6 (Homo sapiens, UniProt Q08211); conditions: exp_ref Probe; protein DHX9 (Q08211); analysis C6
proteins of HEK293T cells transiently overexpressing caspase-6 (Homo sapiens, UniProt Q08211), sequence (Q08211 whole entry): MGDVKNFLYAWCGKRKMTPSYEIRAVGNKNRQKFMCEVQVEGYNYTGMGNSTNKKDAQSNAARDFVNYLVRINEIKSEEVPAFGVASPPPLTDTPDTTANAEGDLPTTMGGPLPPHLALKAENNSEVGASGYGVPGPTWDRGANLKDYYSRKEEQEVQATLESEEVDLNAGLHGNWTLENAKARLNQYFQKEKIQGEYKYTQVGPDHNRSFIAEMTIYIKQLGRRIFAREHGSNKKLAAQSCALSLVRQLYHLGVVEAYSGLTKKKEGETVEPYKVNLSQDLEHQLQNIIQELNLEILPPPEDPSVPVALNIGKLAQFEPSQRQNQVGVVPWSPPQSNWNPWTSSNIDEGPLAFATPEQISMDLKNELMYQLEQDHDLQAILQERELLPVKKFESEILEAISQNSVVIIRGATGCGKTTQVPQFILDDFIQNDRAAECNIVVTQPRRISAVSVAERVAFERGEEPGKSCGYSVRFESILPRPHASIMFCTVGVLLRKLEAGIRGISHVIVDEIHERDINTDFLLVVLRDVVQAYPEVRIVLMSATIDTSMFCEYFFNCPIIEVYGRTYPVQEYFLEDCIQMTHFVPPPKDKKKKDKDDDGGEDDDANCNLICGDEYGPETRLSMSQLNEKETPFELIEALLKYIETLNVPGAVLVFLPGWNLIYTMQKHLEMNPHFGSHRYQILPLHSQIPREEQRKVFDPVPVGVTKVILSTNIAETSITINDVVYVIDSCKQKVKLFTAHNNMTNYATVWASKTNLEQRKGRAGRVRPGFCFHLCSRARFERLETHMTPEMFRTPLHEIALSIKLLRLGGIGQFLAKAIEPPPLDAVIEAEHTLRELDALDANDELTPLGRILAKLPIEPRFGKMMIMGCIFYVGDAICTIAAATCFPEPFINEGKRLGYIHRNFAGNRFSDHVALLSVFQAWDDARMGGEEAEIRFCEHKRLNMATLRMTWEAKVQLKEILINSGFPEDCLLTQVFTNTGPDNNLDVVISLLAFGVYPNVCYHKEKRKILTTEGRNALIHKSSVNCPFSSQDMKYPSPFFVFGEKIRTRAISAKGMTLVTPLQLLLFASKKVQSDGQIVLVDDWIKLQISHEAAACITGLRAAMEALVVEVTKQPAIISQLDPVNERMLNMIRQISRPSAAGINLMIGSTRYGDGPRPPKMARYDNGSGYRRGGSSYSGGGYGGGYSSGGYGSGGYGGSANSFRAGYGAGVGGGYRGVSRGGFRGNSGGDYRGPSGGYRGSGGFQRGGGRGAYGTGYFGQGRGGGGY

[17] = target: proteins of HEK293T cells transiently overexpressing caspase-6 (Homo sapiens, UniProt Q9P258); conditions: exp_ref Probe; protein RCC2 (Q9P258); analysis C6
proteins of HEK293T cells transiently overexpressing caspase-6 (Homo sapiens, UniProt Q9P258), sequence (Q9P258 whole entry): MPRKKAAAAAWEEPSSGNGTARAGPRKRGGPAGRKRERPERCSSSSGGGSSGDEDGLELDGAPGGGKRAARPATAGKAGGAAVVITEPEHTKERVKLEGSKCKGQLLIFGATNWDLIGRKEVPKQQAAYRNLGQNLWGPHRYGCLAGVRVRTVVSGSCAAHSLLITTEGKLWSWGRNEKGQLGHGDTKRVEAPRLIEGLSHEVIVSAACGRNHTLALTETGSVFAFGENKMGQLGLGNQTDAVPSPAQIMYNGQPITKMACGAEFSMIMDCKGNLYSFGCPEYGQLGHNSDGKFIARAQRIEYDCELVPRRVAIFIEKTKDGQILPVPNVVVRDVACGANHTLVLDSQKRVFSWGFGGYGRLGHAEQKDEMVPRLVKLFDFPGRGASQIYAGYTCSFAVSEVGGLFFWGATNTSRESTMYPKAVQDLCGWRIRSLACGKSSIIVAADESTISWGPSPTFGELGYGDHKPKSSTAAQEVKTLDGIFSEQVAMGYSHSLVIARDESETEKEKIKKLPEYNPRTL

C#CCOc1ccc([C@@H]2C[C@@H](C(=O)Nc3ccc(OC(F)(F)F)cc3)CN(S(=O)(=O)C=C)C2)cc1 (relative stereo) [13-t]
enrich.exp.med.lin ([1]; Expt Probe): 5.762
enrich.exp.med.log2 ([1]; Expt Probe): 2.527
enrich.exp.med ([1]; exp_ref Probe): 2.527
enrich.exp.med ([2]; exp_ref Probe, analysis C6): -0.3931
enrich.exp.med.lin [2]: 0.7615
enrich.exp.med.log2 [2]: -0.3931
enrich.exp.med [3]: 0.5173
enrich.exp.med [4]: -4.171
enrich.exp.med [5]: 0.7591
enrich.exp.med ([6]; exp_ref Probe, analysis C6): 0.2557
enrich.exp.med.lin [6]: 1.194
enrich.exp.med.log2 [6]: 0.2557
enrich.exp.med ([7]; exp_ref Probe, analysis C6): 0.6793
enrich.exp.med.lin [7]: 1.601
enrich.exp.med.log2 [7]: 0.6793
enrich.exp.med [8]: 0.404
enrich.exp.med [9]: 0.3142
enrich.exp.med [10]: -0.3557
enrich.exp.med [11]: -0.241
enrich.exp.med [12]: 0.8885
enrich.exp.med ([13]; exp_ref Probe, analysis C6): 0.9115
enrich.exp.med.lin [13]: 1.881
enrich.exp.med.log2 [13]: 0.9115
enrich.exp.med [14]: -0.1743
enrich.exp.med.lin ([15]; Expt Probe): 7.305
enrich.exp.med.log2 ([15]; Expt Probe): 2.869
enrich.exp.med ([15]; exp_ref Probe): 2.869
enrich.exp.med [16]: 0.006951
enrich.exp.med [17]: 0.2232
